One data set in a line: solubility in water. It counts as physicochemical.
Data set [1] is described as follows: solubility in ethyl acetate. It counts as physicochemical. Particulars: at 25° C.

With `OB(O)c1ccccc1` [PBA, phenyl boronic acid, reference compound], in the data set “solubility in water” (at 25° C.), the “solubility of PBA in water” value is 2.5 g PBA per 100 g H2O. Regarding `c1ccc(B2OCC3OC4OB(c5ccccc5)OC4C3O2)cc1` (stereo not drawn) [XDE, xylose phenylboronic diester], the “volume of ethyl acetate that dissolves 1 gram” value in data set [1] stood at 5 mL. Also, the “solubility in H2O (in words)” value in “solubility in water” (H2O) is “extremely insoluble”.

These data come from patent publication US12012639B2, “Processes for isolation and recovery of C5 sugars” (University of Louisville Research Foundation, Inc., priority 2017, dated 2024).
